Experimental data from US11976061B2, “Preparation of benzimidazolone derivatives as novel diacylglyceride O-acyltransferase 2 inhibitors” (Merck Sharp & Dohme LLC, priority 2020, dated 2024).

Molecular target: T1, human DGAT2 (hDGAT2) (Homo sapiens, UniProt Q96PD7)
T1 construct: made in house; host or cells: Sf-9 insect cells (baculovirus), membrane fraction
T1 sequence (Q96PD7 1-388): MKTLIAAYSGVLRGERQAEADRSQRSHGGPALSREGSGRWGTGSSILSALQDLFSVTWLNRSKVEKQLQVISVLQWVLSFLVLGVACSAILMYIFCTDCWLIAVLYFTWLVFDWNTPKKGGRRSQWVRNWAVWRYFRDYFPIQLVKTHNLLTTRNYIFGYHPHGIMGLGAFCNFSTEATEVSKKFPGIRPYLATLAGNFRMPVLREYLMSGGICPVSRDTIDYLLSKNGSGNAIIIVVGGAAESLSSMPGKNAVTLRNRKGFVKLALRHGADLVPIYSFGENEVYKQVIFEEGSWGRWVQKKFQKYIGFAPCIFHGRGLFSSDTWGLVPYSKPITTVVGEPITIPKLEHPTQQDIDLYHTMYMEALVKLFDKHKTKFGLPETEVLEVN
Assay: DGAT2 Enzymatic Activity Assay
Type: biochemical
Conditions: membrane prep of Sf-9 cells expressing hDGAT2; 25 μM diolein, 5 μM 13C oleoyl-CoA; 13C18-triolein by LC/MS/MS; read-out: DGAT2 IC50
Outline: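 Membranes from Sf-9 cells expressing untagged human DGAT2 (8 ng/μL) incubated at rt in 100 mM Tris·Cl pH 7.0, 20 mM MgCl2, 5% ethanol with 25 μM diolein and 5 μM 13C oleoyl-CoA. 13C18-triolein product quantified by LC/MS/MS against 13C21-triolein internal standard; IC50 by 4-parameter fit.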

Row | Structure (SMILES) | IC50
1 | CC(C)n1c(=O)n(-c2cccc(OC(F)F)c2)c2ccc(C(=O)NC3(C)CS(=O)(=O)C3)cc21 [Example 26, 1-[3-(difluoromethoxy)phenyl]-3-isopropyl-N-(3-methyl-1,1-dioxo-thietan-3-yl)-2-oxo-benzimidazole-5-carboxamide] | 54 nM
2 | CC(C)n1c(=O)n(-c2cccc(OC(F)F)c2)c2ccc(C(=O)NC(C)C(C)(C)O)cc21 (stereo not drawn) [Example 27, 1-[3-(difluoromethoxy)phenyl]-N-(2-hydroxy-1,2-dimethyl-propyl)-3-isopropyl-2-oxo-benzimidazole-5-carboxamide] | > 10000 nM
3 | CC(C)n1c(=O)n(-c2cccc(OC(F)F)c2)c2ccc(C(=O)N[C@H]3CCC[C@@H]3O)cc21 [Example 28, 1-[3-(difluoromethoxy)phenyl]-N-[(1S,2S)-2-hydroxycyclopentyl]-3-isopropyl-2-oxo-benzimidazole-5-carboxamide] | 779 nM
4 | CC(C)n1c(=O)n(-c2cccc(OC(F)F)c2)c2ccc(C(=O)N[C@H]3CCOC[C@@H]3O)cc21 [Example 29, 1-[3-(difluoromethoxy)phenyl]-N-[(3R,4S)-3-hydroxytetrahydropyran-4-yl]-3-isopropyl-2-oxo-benzimidazole-5-carboxamide] | 1260 nM
5 | CC(C)n1c(=O)n(-c2cccc(OC(F)F)c2)c2ccc(C(=O)N[C@H]3CCCC(F)(F)[C@@H]3O)cc21 [Example 30, N-[(1S,2R)-3,3-difluoro-2-hydroxy-cyclohexyl]-1-[3-(difluoromethoxy)phenyl]-3-isopropyl-2-oxo-benzimidazole-5-carboxamide] | 31 nM
6 | CC(C)n1c(=O)n(-c2cccc(OC(F)F)c2)c2ccc(C(=O)N[C@@H]3CCCC[C@H]3O)cc21 [Example 31, 1-[3-(difluoromethoxy)phenyl]-N-[(1R,2R)-2-hydroxycyclohexyl]-3-isopropyl-2-oxo-benzimidazole-5-carboxamide] | 106 nM
7 | CC(C)n1c(=O)n(-c2cccc(OC(F)F)c2)c2ccc(C(=O)N[C@@]3(C)CCS(=O)(=O)C3)cc21 [Example 32, 1-[3-(difluoromethoxy)phenyl]-3-isopropyl-N-[(3S)-3-methyl-1,1-dioxo-thiolan-3-yl]-2-oxo-benzimidazole-5-carboxamide] | 96 nM
8 | CC(C)n1c(=O)n(-c2cccc(OC(F)F)c2)c2ccc(C(=O)NC3(C)CC(F)(F)C3)cc21 [Example 33, 1-[3-(difluoromethoxy)phenyl]-N-(3,3-difluoro-1-methyl-cyclobutyl)-3-isopropyl-2-oxo-benzimidazole-5-carboxamide] | 182 nM
9 | CC(C)[C@@H](CO)NC(=O)c1ccc2c(c1)n(C(C)C)c(=O)n2-c1cccc(OC(F)F)c1 [Example 34, 1-[3-(difluoromethoxy)phenyl]-N-[(1S)-1-(hydroxymethyl)-2-methyl-propyl]-3-isopropyl-2-oxo-benzimidazole-5-carboxamide] | 62 nM
10 | CC(C)n1c(=O)n(-c2cccc(OC(F)F)c2)c2ccc(C(=O)N[C@H]3CCCC[C@@H]3O)cc21 [Example 35, 1-[3-(difluoromethoxy)phenyl]-N-[(1S,2S)-2-hydroxycyclohexyl]-3-isopropyl-2-oxo-benzimidazole-5-carboxamide] | 71 nM
11 | CC1(NC(=O)c2ccc3c(c2)n(C2CCOCC2)c(=O)n3-c2cccc(OC(F)F)c2)CS(=O)(=O)C1 [Example 36, 1-(3-(difluoromethoxy)phenyl)-N-(3-methyl-1,1-dioxidothietan-3-yl)-2-oxo-3-(tetrahydro-2H-pyran-4-yl)-2,3-dihydro-1H-benzo[d]imidazole-5-carboxamide] | 19.4 nM
12 | C[C@@]1(NC(=O)c2ccc3c(c2)n(C2CCC2)c(=O)n3-c2cccc(OC(F)F)c2)CCS(=O)(=O)C1 [Example 37, (R)-3-Cyclobutyl-1-(3-(difluoromethoxy)phenyl)-N-(3-methyl-1,1-dioxidotetrahydrothiophen-3-yl)-2-oxo-2,3-dihydro-1H-benzo[d]imidazole-5-carboxamide] | 64 nM
13 | C[C@@]1(NC(=O)c2ccc3c(c2)n(C2CCCC2)c(=O)n3-c2cccc(OC(F)F)c2)CCS(=O)(=O)C1 [Example 38, (R)-3-Cyclopentyl-1-(3-(difluoromethoxy)phenyl)-N-(3-methyl-1,1-dioxidotetrahydrothiophen-3-yl)-2-oxo-2,3-dihydro-1H-benzo[d]imidazole-5-carboxamide] | 24 nM
14 | CCn1c(=O)n(-c2cccc(OC(F)F)c2)c2ccc(C(=O)NC3(C)CCS(=O)(=O)CC3)cc21 [Example 39, 1-(3-(Difluoromethoxy)phenyl)-3-ethyl-N-(4-methyl-1,1-dioxidotetrahydro-2H-thiopyran-4-yl)-2-oxo-2,3-dihydro-1H-benzo[d]imidazole-5-carboxamide] | 109 nM

Same assay, conditions: membrane prep of Sf-9 cells expressing hDGAT2; 25 μM diolein, 5 μM 13C oleoyl-CoA; 13C18-triolein by LC/MS/MS; read-out: Human DGAT2 IC50

Row | Structure (SMILES) | IC50
15 | CC(C)n1c(=O)n(-c2cccc(OC(F)(F)F)c2)c2ccc(C(=O)NC3(C)CS(=O)(=O)C3)cc21 [Example 19, 3-isopropyl-N-(3-methyl-1,1-dioxo-thietan-3-yl)-2-oxo-1-[3-(trifluoromethoxy)phenyl]benz-imidazole-5-carboxamide] | 100 nM
16 | CC(C)n1c(=O)n(-c2cc(OC(F)F)ncc2F)c2ccc(C(=O)NC3(C)CS(=O)(=O)C3)cc21 [Example 20, 1-(2-(difluoromethoxy)-5-fluoropyridin-4-yl)-3-isopropyl-N-(3-methyl-1,1-dioxidothietan-3-yl)-2-oxo-2,3-dihydro-1H-benzo[d]imidazole-5-carboxamide] | 76 nM
17 | CCOc1cc(-n2c(=O)n(C(C)C)c3cc(C(=O)NC4(C)CS(=O)(=O)C4)c(F)cc32)c(F)cn1 [Example 21, 1-(2-Ethoxy-5-fluoropyridin-4-yl)-6-fluoro-3-isopropyl-N-(3-methyl-1,1-dioxidothietan-3-yl)-2-oxo-2,3-dihydro-1H-benzo[d]imidazole-5-carboxamide] | 31 nM
18 | CC(C)n1c(=O)n(-c2cccc(C3CC3(F)F)c2)c2ccc(C(=O)NC3(C)CS(=O)(=O)C3)cc21 (stereo not drawn) [Example 22, 1-(3-(2,2-Difluorocyclopropyl)phenyl)-3-isopropyl-N-(3-methyl-1,1-dioxidothietan-3-yl)-2-oxo-2,3-dihydro-1H-benzo[d]imidazole-5-carboxamide] | 66 nM
19 | CC(C)n1c(=O)n(-c2cccc(OC(F)F)c2)c2ccc(C(=O)N[C@]3(C)CCS(=O)(=O)C3)cc21 [Example 23, (R)-1-(3-(Difluoromethoxy)phenyl)-3-isopropyl-N-(3-methyl-1,1-dioxidotetrahydrothiophen-3-yl)-2-oxo-2,3-dihydro-1H-benzo[d]imidazole-5-carboxamide] | 63 nM
20 | CC(C)n1c(=O)n(-c2cc(OC(F)F)ncc2F)c2cc(F)c(C(=O)NC3(C)CS(=O)(=O)C3)cc21 [Example 24, 1-(2-(Difluoromethoxy)-5-fluoropyridin-4-yl)-6-fluoro-3-isopropyl-N-(3-methyl-1,1-dioxidothietan-3-yl)-2-oxo-2,3-dihydro-1H-benzo[d]imidazole-5-carboxamide] | 66 nM
21 | CC(C)n1c(=O)n(-c2cccc(OC(F)F)c2)c2ccc(C(=O)NC3(C)CCS(=O)(=O)CC3)cc21 [Example 25, 1-(3-(difluoromethoxy)phenyl)-3-isopropyl-N-(4-methyl-1,1-dioxidotetrahydro-2H-thiopyran-4-yl)-2-oxo-2,3-dihydro-1H-benzo[d]imidazole-5-carboxamide] | 23 nM
